Tests used:
hα2A receptor = biological target: T1, hα2A receptor (Homo sapiens, UniProt P08913); test: Radioligand binding experiment for α2A-adrenoceptor ([3H]raulwolscine, CHO cell membranes); conditions: [3H]raulwolscine binding; for IC50: read-out: h-α2A pIC50 (converted)
T1 construct: expressed in transfected cells; host or cells: CHO cells, stably transfected; membrane preparation
T1 sequence (P08913 1-465): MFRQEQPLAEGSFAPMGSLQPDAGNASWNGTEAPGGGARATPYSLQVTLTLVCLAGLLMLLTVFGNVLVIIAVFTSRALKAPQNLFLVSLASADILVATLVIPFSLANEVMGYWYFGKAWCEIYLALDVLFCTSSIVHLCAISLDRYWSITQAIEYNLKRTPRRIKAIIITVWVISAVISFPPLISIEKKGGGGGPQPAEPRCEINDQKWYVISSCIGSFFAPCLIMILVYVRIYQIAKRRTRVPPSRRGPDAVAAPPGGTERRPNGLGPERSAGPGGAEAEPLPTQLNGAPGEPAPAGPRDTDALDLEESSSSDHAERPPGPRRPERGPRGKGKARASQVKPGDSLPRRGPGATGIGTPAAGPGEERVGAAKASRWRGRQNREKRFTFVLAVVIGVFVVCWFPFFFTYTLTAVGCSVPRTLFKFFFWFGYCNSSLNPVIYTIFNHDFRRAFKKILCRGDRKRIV

hα2C receptor = biological target: T2, hα2C receptor (Homo sapiens, UniProt P18825); test: Radioligand binding experiment for α2C-adrenoceptor ([3H]raulwolscine, CHO cell membranes); conditions: [3H]raulwolscine binding; for IC50: read-out: h-α2C pIC50 (converted)
T2 construct: expressed in transfected cells; host or cells: CHO cells, stably transfected; membrane preparation
T2 sequence (P18825 1-462): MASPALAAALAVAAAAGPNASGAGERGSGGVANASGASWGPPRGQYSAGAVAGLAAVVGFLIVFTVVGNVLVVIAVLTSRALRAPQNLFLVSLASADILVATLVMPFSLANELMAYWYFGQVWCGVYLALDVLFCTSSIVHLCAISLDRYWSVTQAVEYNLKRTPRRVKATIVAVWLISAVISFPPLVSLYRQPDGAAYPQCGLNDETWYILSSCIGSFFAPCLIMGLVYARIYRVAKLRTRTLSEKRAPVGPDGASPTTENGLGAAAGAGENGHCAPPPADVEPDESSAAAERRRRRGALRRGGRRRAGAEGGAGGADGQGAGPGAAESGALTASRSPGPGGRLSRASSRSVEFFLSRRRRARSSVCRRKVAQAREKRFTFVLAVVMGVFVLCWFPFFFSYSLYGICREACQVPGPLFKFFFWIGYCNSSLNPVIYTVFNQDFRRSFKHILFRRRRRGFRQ

5HT-Transporter = biological target: T3, 5HT-Transporter (Homo sapiens, UniProt P31645); test: Binding experiment for the 5HT-transporter ([3H]paroxetine, human platelet membranes); conditions: [3H]paroxetine 0.5 nM; for IC50: read-out: h-5HTT pIC50 (converted)
T3 construct: Human platelet membranes (Oceanix Biosciences Corporation, Hanover, Md., USA) were thawed; tissue Oceanix Biosciences Corporation, Hanover, Md., USA; host or cells: human platelet membranes
In short: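 Competition binding of [3H]paroxetine to human platelet membranes in Tris-HCl 50 mM, 120 mM NaCl, 5 mM KCl, with filtration and scintillation counting.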

T3 sequence (P31645 whole entry): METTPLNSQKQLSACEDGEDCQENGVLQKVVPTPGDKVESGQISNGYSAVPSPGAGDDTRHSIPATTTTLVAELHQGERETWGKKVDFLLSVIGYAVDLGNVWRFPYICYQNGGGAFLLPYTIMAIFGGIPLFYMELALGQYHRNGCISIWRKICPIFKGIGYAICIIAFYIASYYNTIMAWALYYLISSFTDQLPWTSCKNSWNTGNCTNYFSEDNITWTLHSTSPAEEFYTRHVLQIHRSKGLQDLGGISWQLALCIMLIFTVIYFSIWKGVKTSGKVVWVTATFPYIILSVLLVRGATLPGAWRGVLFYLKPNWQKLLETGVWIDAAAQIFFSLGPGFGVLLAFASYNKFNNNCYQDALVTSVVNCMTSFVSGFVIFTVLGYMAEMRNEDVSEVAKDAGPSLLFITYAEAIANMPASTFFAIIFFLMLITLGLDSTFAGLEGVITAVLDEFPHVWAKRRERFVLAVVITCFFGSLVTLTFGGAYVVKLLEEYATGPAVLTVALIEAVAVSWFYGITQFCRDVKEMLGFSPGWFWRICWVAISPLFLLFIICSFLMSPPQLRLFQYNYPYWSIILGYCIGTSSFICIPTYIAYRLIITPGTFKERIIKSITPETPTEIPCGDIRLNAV

IC50 (hα2A receptor)	IC50 (hα2C receptor)	IC50 (5HT-Transporter)	h-α2A pIC50 (hα2A receptor)	h-α2C pIC50 (hα2C receptor)	h-5HTT pIC50 (5HT-Transporter)	Compound
31.6 nM	10 nM	398 nM	–	–	–	C/C(=C\c1ccccc1)CN1CCC(Nc2nccn(-c3ccc(F)cc3)c2=O)CC1 [5-2]
31.6 nM	3.98 nM	794 nM	–	–	–	C/C(=C\c1ccccc1)CN1CCC(Nc2nccn(-c3ccc(C(=O)N4CCOCC4)cc3)c2=O)CC1 [2-46]
63.1 nM	25.1 nM	501 nM	–	–	–	C/C(=C\c1ccccc1)CN1CCC(Nc2nccn(-c3ccc(C(=O)NC4CCN(Cc5ccccc5)CC4)cc3)c2=O)CC1 [1-129]
158 nM	12.6 nM	631 nM	–	–	–	C/C(=C\c1ccccc1)CN1CCC(Nc2nccn(CCCN(Cc3ccccc3)C(=O)Nc3ccccc3)c2=O)CC1 [1-123]
31.6 nM	39.8 nM	1260 nM	–	–	–	C/C(=C\c1ccccc1)CN1CCC(Nc2nccn(CC(=O)c3ccc(N4CCCC4)cc3)c2=O)CC1 [2-1]
31.6 nM	20 nM	158 nM	–	–	–	C/C(=C\c1ccccc1)CN1CCC(Nc2nccn(-c3cccc(N(Cc4ccccc4)c4ccccc4)c3)c2=O)CC1 [1-70]
126 nM	7.94 nM	5010 nM	–	–	–	C/C(=C\c1ccccc1)CN1CCC(Nc2nccn(CC(=O)N3CCC(O)(c4ccccc4)CC3)c2=O)CC1 [2-14]
126 nM	126 nM	1000 nM	–	–	–	C/C(=C\c1ccccc1)CN1CCN(c2nccn(Cc3ccc4ccccc4c3)c2=O)CC1 [12-7]
316 nM	79.4 nM	6310 nM	–	–	–	C/C(=C\c1ccccc1)CN1CCN(c2nccn(Cc3csc(C)n3)c2=O)CC1 [13-3]
79.4 nM	7.94 nM	5010 nM	–	–	–	C/C(=C\c1ccccc1)CN1CCC(Nc2nccn(CC(=O)C(C)(C)C)c2=O)CC1 [7-9]
158 nM	20 nM	794 nM	–	–	–	C/C(=C\c1ccccc1)CN1CCC(Nc2nccn(Cc3ccc(CNS(=O)(=O)c4c(C)noc4C)cc3)c2=O)CC1 [1-171]
200 nM	126 nM	316 nM	–	–	–	C/C(=C\c1ccccc1)CN1CCC(Nc2nccn(Cc3ccc(CNC(=O)NCCS)cc3)c2=O)CC1 [1-116]
50.1 nM	1 nM	1000 nM	–	–	–	C/C(=C\c1ccccc1)CN1CCC(Nc2nccn(CCCN(C)Cc3ccccc3)c2=O)CC1 [1-51]
158 nM	15.8 nM	1000 nM	–	–	–	C/C(=C\c1ccccc1)CN1CCC(Nc2nccn(CCCN(Cc3ccccc3)C(=O)CC3CCCC3)c2=O)CC1 [1-86]
100 nM	15.8 nM	398 nM	–	–	–	C/C(=C\c1ccccc1)CN1CCC(Nc2nccn(CCc3ccccc3)c2=O)CC1 [5-27]
100 nM	10 nM	1580 nM	–	–	–	CCOC(=O)N1CCN(Cc2cccc(-n3ccnc(NC4CCN(C/C(C)=C/c5ccccc5)CC4)c3=O)c2)CC1 [2-36]
316 nM	79.4 nM	7940 nM	–	–	–	COCCCn1ccnc(N2CCN(C/C(C)=C/c3ccccc3)CC2)c1=O [10-1]
158 nM	63.1 nM	501 nM	–	–	–	C/C(=C\c1ccccc1)CN1CCC(Nc2nccn(Cc3ccc(CNC(=O)NCCc4ccccc4)cc3)c2=O)CC1 [1-125]
200 nM	50.1 nM	794 nM	–	–	–	CCCC(=O)NCc1ccc(Cn2ccnc(NC3CCN(C/C(C)=C/c4ccccc4)CC3)c2=O)cc1 [1-31]
63.1 nM	6.31 nM	2000 nM	–	–	–	C/C(=C\c1ccccc1)CN1CCC(Nc2nccn(CCCN)c2=O)CC1 [1-1]
79.4 nM	25.1 nM	251 nM	–	–	–	C/C(=C\c1ccccc1)CN1CCC(Nc2nccn(Cc3ccc(CNC(=O)Cc4ccccc4)cc3)c2=O)CC1 [1-82]
158 nM	15.8 nM	1000 nM	–	–	–	C/C(=C\c1ccccc1)CN1CCC(Nc2nccn(CCN3C(=O)c4ccccc4C3=O)c2=O)CC1 [2-49]
158 nM	12.6 nM	501 nM	–	–	–	C/C(=C\c1ccccc1)CN1CCC(Nc2nccn(CCCN(C)S(=O)(=O)c3ccccc3)c2=O)CC1 [1-160]
1000 nM	158 nM	> 10000 nM	–	–	–	CC(C)(C)C(=O)Cn1ccnc(NC2CCN(C/C=C/c3ccccc3)CC2)c1=O [16-25]

IC50 (hα2A receptor)	IC50 (hα2C receptor)	IC50 (5HT-Transporter)	h-α2A pIC50 (hα2A receptor)	h-α2C pIC50 (hα2C receptor)	h-5HTT pIC50 (5HT-Transporter)	Compound
79.4 nM	5.01 nM	2510 nM	–	–	–	C#CCN(C)C(=O)Cn1ccnc(NC2CCN(C/C(C)=C/c3ccccc3)CC2)c1=O [1-28]
126 nM	20 nM	3980 nM	–	–	–	C/C(=C\c1ccccc1)CN1CCC(Nc2nccn(-c3ccc(N4CCOCC4)cc3)c2=O)CC1 [2-43]
31.6 nM	2 nM	3160 nM	–	–	–	C/C(=C\c1ccccc1)CN1CCC(Nc2nccn(CC(=O)NCCN(C)C)c2=O)CC1 [1-102]
126 nM	25.1 nM	1000 nM	–	–	–	COC(=O)CC(=O)NCc1ccc(Cn2ccnc(NC3CCN(C/C(C)=C/c4ccccc4)CC3)c2=O)cc1 [1-100]
3.16 nM	1 nM	631 nM	–	–	–	CCCNCc1cccc(-n2ccnc(NC3CCN(C/C(C)=C/c4ccccc4)CC3)c2=O)c1 [1-11]
158 nM	10 nM	1260 nM	–	–	–	CCCC(=O)N(CCCn1ccnc(NC2CCN(C/C(C)=C/c3ccccc3)CC2)c1=O)Cc1ccccc1 [1-85]
50.1 nM	5.01 nM	631 nM	–	–	–	C/C(=C\c1ccccc1)CN1CCC(Nc2nccn(-c3ccc(N4CCC(N5CCCC5)CC4)cc3)c2=O)CC1 [2-19]
2000 nM	251 nM	> 10000 nM	–	–	–	O=c1c(NC2CCN(C/C=C/c3ccccc3)CC2)nccn1Cc1ccncc1 [16-20]
501 nM	126 nM	1000 nM	–	–	–	O=c1c(NC2CCN(C/C=C/c3ccccc3)CC2)nccn1Cc1ccc2ccccc2n1 [16-21]
31.6 nM	20 nM	200 nM	–	–	–	C/C(=C\c1ccccc1)CN1CCC(Nc2nccn(-c3cccc(N4CCN(c5ccccc5)CC4)c3)c2=O)CC1 [2-27]
126 nM	7.94 nM	501 nM	–	–	–	C=CCN1CCN(C(=O)c2ccc(-n3ccnc(NC4CCN(C/C(C)=C/c5ccccc5)CC4)c3=O)cc2)CC1 [2-25]
3980 nM	398 nM	> 10000 nM	–	–	–	O=c1c(NC2CCN(C/C=C/c3ccccc3)CC2)nccn1CCN1CCOCC1 [16-7]
631 nM	63.1 nM	3980 nM	–	–	–	COCCCn1ccnc(NC2CCN(C/C(C)=C/c3ccccc3)CC2)c1=O [3-6]
63.1 nM	15.8 nM	3980 nM	–	–	–	CCn1ccnc(NC2CCN(C/C(C)=C/c3ccccc3)CC2)c1=O [7-3]
79.4 nM	10 nM	794 nM	–	–	–	C/C(=C\c1ccccc1)CN1CCC(Nc2nccn(CC(=O)NCCCc3ccccc3)c2=O)CC1 [1-60]
200 nM	31.6 nM	> 10000 nM	–	–	–	C/C(=C\c1ccccc1)CN1CCC(Nc2nccn(CCC(N)=O)c2=O)CC1 [1-3]
126 nM	25.1 nM	1260 nM	–	–	–	C/C(=C\c1ccccc1)CN1CCC(Nc2nccn(Cc3ccc(S(C)(=O)=O)cc3)c2=O)CC1 [5-26]
316 nM	12.6 nM	7940 nM	–	–	–	CC(=O)CN(C)CCCn1ccnc(NC2CCN(C/C(C)=C/c3ccccc3)CC2)c1=O [1-38]
126 nM	39.8 nM	2000 nM	–	–	–	C/C(=C\c1ccccc1)CN1CCC(Nc2nccn(CC(=O)Nc3ccc(N4CCOCC4)cc3)c2=O)CC1 [1-45]
–	–	–	7.9	8.8	6.1	C/C(=C\c1ccccc1)CN1CCC(Nc2nccn(-c3cccc(CNCCN(C)C)c3)c2=O)CC1 [1-106]
79.4 nM	15.8 nM	316 nM	–	–	–	C/C(=C\c1ccccc1)CN1CCC(Nc2nccn(Cc3ccc4ccccc4n3)c2=O)CC1 [6-17]
50.1 nM	10 nM	1260 nM	–	–	–	C/C(=C\c1ccccc1)CN1CCC(Nc2nccn(CC(=O)C34CC5CC(CC(C5)C3)C4)c2=O)CC1 [7-10]
63.1 nM	2.51 nM	631 nM	–	–	–	C/C(=C\c1ccccc1)CN1CCC(Nc2nccn(CC(=O)N(C)Cc3ccccc3)c2=O)CC1 [1-52]

Source: patent US20090111801A1, “SUBSTITUTED PYRAZINONE DERIVATIVES FOR USE AS A MEDICINE” (Janssen Pharmaceutica N.V., priority 2006, published 2009)
